Results reported in ChEMBL document CHEMBL1157648, “Structural-based design and synthesis of novel 9-deazaguanine derivatives having a phosphate mimic as multi-substrate analogue inhibitors for mammalian PNPs” (Bioorg Med Chem, 2010).
“And” between values parts separate entries of the source, which are not always exact repeats. Equal entries are not always repeated. Values belong to the molecule of their own block, whether it stands above or below them. The source made the active and inactive calls. The rule behind the calls is not given here.

Key:
[1] = molecular target: T1, Purine nucleoside phosphorylase (Bos taurus) (UniProt P55859); conditions: Spleen
T1 sequence (whole entry): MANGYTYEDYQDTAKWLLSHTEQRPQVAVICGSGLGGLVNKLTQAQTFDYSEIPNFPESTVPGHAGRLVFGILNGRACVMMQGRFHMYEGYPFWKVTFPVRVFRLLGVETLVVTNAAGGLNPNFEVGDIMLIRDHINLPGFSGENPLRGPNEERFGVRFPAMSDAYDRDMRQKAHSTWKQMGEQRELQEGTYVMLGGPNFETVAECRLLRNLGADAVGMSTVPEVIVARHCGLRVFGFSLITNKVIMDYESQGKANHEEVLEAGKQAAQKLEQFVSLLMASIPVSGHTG

[2] = molecular target: T2, Purine nucleoside phosphorylase (Homo sapiens) (UniProt P00491); conditions: 4.99 to 18.71 uM
T2 sequence (whole entry): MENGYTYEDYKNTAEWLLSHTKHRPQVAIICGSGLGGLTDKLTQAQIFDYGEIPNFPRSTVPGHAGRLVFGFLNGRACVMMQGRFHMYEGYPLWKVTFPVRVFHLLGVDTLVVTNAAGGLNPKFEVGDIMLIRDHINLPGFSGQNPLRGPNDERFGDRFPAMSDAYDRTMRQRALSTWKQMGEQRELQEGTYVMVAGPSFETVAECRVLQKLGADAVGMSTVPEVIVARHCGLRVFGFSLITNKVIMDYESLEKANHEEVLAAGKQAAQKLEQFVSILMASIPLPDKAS

[3] = molecular target: T3, Purine nucleoside phosphorylase (Homo sapiens, UniProt P00491); assay: Inhibition of human erythrocyte PNP assessed as inhibition of 25 uM 7-methylguanosine phosphorolysis by spectrophotometry in presence of 1 mM inorganic phosphate
T3 sequence (P00491 whole entry): T2 sequence (whole entry)

[4] = molecular target: T4, Purine nucleoside phosphorylase (Bos taurus, UniProt P55859); assay: Inhibition of calf spleen PNP assessed as inhibition of 7-methylguanosine phosphorolysis after 50 mins by spectrophotometry in presence of 1 mM inorganic phosphate; conditions: read-out: Ki(app)
T4 sequence (P55859 whole entry): T1 sequence (whole entry)

[5] = molecular target: T3, Purine nucleoside phosphorylase; assay: Inhibition of human erythrocyte PNP assessed as inhibition of 7-methylguanosine phosphorolysis after 50 mins by spectrophotometry in presence of 1 mM inorganic phosphate; conditions: read-out: Ki(app)
[6] = molecular target: T4, Purine nucleoside phosphorylase
[7] = molecular target: T1, Purine nucleoside phosphorylase (Bos taurus); conditions: Spleen; remark: listed apart in the source
[8] = Dissociation constant, pKa at 2 mg by spectrophotometry

Compound: CCOP(=O)(OCC)C(F)(F)CCCc1c[nH]c2c(=O)[nH]c(N)nc12
IC50 [3]: 170 nM

Compound: O=c1[nH]cnc2c([C@@H]3N[C@H](CO)[C@@H](O)[C@H]3O)c[nH]c12 [FORODESINE]
Ki [6]: 41 nM | Kieq [7]: 0.023 nM

Compound: Cn1c(N)nc2cc[nH]c2c1=O
pKa [8]: 5.1

Compound: Cn1c(N)nc2ccn(C)c2c1=O
pKa [8]: 10.6

Other lines, results leading:

Kieq [1]: 0.085 nM | inhibition [2]: Active
Compound: Nc1nc2c(CCCCC(F)(F)P(=O)(O)O)c[nH]c2c(=O)[nH]1

Kieq [1]: 0.72 nM
Compound: Nc1nc(O)c2ncn(CCCCC(F)(F)P(=O)(O)O)c2n1

Ki [4]: 6.1 nM and 0.94 nM | Ki [5]: 5.6 nM
Compound: Nc1nc2c(CCCCCCCC(F)(F)P(=O)(O)O)c[nH]c2c(=O)[nH]1
